# How the values were obtained:
# EP2 [1] = biological target: T1, EP2 (Homo sapiens, UniProt P43116); assay: EP2 Ki (binding)
# Description: (§1) US 2007/0129552, incorporated by reference herein, describes the methods used to obtain the in vitro data in the table below.
# EP2 [2] = biological target: T1, EP2; assay: EP2 cAMP; type: cell-based
# Description: as §1
# hDP = biological target: T2, hDP (Homo sapiens, UniProt Q13258); assay: Other receptors: hDP EC50; type: cell-based
# T2 sequence (Q13258 1-359): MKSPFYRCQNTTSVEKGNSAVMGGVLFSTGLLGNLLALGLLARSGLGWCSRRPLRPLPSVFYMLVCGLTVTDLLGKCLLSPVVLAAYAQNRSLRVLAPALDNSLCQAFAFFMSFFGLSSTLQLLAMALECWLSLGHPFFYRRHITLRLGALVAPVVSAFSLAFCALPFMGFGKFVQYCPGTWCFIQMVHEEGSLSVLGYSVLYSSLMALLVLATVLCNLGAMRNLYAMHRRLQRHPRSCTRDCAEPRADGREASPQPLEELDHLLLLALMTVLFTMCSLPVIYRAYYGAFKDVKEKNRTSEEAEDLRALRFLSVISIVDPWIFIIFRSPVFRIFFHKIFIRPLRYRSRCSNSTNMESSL
# Description: as §1
# hTP = biological target: T3, hTP (Homo sapiens, UniProt P21731); assay: Other receptors: hTP EC50; type: cell-based
# T3 sequence (P21731 1-343): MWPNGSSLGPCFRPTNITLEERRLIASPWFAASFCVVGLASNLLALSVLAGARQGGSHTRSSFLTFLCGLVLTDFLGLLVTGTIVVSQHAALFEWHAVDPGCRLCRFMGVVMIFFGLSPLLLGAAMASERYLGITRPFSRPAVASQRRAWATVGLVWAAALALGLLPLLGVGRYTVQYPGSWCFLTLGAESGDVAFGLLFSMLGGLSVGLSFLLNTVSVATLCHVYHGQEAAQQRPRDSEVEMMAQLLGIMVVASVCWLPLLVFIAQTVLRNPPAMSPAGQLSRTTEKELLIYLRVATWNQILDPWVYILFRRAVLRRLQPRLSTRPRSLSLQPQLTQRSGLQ
# Description: as §1
# EP4 [3] = biological target: T4, EP4 (Homo sapiens, UniProt P35408); assay: EP4 flipr; type: cell-based
# Description: as §1
# hIP = hIP (Homo sapiens, UniProt P43119); assay: Other receptors: hIP EC50; type: cell-based
# Description: as §1
# hEP1 = biological target: T5, hEP1 (Homo sapiens, UniProt P34995); assay: Other receptors: hEP1 EC50; type: cell-based
# T5 sequence (P34995 1-402): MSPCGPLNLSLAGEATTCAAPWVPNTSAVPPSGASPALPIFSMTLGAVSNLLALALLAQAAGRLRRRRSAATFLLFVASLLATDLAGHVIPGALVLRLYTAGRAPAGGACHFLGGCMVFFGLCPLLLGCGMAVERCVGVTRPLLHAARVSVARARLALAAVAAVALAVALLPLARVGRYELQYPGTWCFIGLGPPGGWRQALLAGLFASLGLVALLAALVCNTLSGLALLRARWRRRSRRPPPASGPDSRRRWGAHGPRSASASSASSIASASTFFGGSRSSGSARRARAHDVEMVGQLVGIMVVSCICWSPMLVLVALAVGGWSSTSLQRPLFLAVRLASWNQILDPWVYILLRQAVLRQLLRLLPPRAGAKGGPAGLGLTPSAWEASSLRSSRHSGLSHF
# Description: as §1
# EP4 [4] = biological target: T4, EP4; assay: EP4 KI (binding)
# Description: as §1
# hEP3A = biological target: T6, hEP3A (Homo sapiens, UniProt P43115); assay: Other receptors: hEP3A EC50; type: cell-based
# T6 sequence (P43115 1-390): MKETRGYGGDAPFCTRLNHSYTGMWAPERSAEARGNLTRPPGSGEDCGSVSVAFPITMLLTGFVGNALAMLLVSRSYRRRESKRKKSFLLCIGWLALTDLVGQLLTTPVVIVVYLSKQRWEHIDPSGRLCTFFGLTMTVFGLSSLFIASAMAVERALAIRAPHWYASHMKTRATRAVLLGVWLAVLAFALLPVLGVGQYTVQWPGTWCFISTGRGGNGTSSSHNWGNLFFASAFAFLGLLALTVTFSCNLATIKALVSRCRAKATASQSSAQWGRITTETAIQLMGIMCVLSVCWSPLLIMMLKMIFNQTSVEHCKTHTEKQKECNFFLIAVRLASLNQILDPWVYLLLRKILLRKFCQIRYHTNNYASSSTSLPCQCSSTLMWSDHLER
# Description: as §1
# EP2 [5] = biological target: T1, EP2; assay: EP2 flipr; type: cell-based
# Description: as §1
# hFP = hFP (Homo sapiens, UniProt P43088); assay: Other receptors: hFP EC50; type: cell-based
# Description: as §1
# T4 sequence (P35408 whole entry): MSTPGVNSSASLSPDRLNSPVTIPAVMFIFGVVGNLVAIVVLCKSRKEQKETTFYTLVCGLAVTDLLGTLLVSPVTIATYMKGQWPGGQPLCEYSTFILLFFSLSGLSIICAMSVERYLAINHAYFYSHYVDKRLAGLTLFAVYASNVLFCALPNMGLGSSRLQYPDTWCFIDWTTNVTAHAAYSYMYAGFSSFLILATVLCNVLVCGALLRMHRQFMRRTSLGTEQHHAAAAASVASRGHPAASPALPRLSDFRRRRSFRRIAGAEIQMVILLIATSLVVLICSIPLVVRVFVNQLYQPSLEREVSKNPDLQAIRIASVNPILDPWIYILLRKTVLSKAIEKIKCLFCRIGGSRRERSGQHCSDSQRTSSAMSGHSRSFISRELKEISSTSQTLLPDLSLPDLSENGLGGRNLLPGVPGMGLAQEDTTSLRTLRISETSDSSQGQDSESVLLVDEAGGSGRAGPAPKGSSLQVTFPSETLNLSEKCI
# T1 sequence (P43116 whole entry): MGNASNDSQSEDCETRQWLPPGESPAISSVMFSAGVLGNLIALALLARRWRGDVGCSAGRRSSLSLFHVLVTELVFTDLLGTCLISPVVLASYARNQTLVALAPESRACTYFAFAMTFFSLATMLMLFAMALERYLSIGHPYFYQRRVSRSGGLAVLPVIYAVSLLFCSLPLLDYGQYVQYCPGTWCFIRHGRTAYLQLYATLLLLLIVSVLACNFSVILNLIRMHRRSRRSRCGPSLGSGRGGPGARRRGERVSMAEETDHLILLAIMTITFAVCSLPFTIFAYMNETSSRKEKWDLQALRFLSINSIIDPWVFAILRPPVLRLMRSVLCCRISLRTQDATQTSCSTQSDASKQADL
# hIP, sequence (P43119 whole entry): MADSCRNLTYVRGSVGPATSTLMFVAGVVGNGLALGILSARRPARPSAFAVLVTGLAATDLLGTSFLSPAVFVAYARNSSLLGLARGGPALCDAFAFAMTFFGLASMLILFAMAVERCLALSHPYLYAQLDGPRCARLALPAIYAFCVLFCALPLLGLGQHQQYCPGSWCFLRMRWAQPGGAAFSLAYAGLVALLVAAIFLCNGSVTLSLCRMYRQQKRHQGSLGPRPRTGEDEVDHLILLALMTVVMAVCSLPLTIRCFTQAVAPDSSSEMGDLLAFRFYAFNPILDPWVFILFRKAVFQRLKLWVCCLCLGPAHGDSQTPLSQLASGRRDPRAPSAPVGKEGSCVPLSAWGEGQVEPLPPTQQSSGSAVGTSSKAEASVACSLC
# hFP, sequence (P43088 whole entry): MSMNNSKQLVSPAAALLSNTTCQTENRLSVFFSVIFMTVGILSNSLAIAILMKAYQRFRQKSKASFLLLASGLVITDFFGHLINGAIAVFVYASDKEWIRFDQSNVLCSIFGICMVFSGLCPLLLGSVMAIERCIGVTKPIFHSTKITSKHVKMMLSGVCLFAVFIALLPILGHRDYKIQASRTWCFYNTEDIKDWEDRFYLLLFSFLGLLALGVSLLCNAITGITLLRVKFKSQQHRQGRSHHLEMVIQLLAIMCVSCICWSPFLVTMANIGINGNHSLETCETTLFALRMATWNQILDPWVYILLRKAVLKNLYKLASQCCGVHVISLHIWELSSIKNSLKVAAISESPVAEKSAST
Structure (SMILES),Ki (EP2 [1]) [µM],EC50 (EP2 [2]) [µM],EC50 (hDP) [nM],EC50 (hTP) [nM],EC50 (EP4 [3]) [µM],EC50 (hIP) [nM],EC50 (hEP1) [nM],Ki (EP4 [4]) [µM],EC50 (hEP3A) [nM],EC50 (EP2 [5]) [µM],EC50 (hFP) [nM]
CN(Cc1ccccc1)C[C@@H]1[C@@H](CCCc2ccc(C(=O)O)s2)[C@H](Cl)C[C@H]1O,0.024,0.0036,5620,–,–,–,–,–,–,–,–
O=C(O)CCC/C=C\C[C@@H]1[C@@H](COCc2cccc(C(F)(F)F)c2)[C@H](O)C[C@H]1Cl,0.214,0.005,> 10000,11,2.33,7,97,3.17,88,0.195,22500
O=C(O)c1ccc(CCC[C@@H]2[C@@H](CCCc3cc(Cl)cc(Cl)c3)[C@H](O)C[C@H]2Cl)s1,0.0006,0.001,–,7110,10.1,–,–,0.999,8060,9.92,–
O=C(O)c1ccc(CCC[C@@H]2[C@@H](CNCc3ccccc3)[C@H](O)C[C@H]2Cl)s1,0.143,0.006,–,–,–,–,–,–,–,–,–
O=C(O)c1ccc(CCC[C@@H]2[C@@H](CCCc3ccccc3)[C@H](O)C[C@H]2Cl)s1,0.003,0.0006,6780,–,4.96,–,–,2.16,–,–,–
CCc1cccc(COC[C@@H]2[C@@H](CCCc3ccc(C(=O)O)s3)[C@H](Cl)C[C@H]2O)c1,0.003,0.0005,> 10000,2520,6.54,–,–,0.606,–,0.255,–
CCc1cccc(CCC[C@@H]2[C@@H](CCCc3ccc(C(=O)O)s3)[C@H](Cl)C[C@H]2O)c1,0.004,0.0009,–,–,> 10,–,–,1.84,–,13.8,–
O=C(O)c1ccc(CCC[C@@H]2[C@@H](CCCc3cccc(C(F)(F)F)c3)[C@H](O)C[C@H]2Cl)s1,0.0005,0.0003,–,–,–,–,4260,0.74,–,2.52,–
O=C(O)c1ccc(CCC[C@@H]2[C@@H](C=C=Cc3cccc(C(F)(F)F)c3)[C@H](O)C[C@H]2Cl)s1,0.011,0.0017,–,–,–,–,–,–,–,3.26,–
O=C(O)c1ccc(CCC[C@@H]2[C@@H](C=C=Cc3ccccc3)[C@H](O)C[C@H]2Cl)s1,0.006,0.0017,10200,–,11.1,–,–,0.715,–,–,–
